Common to all, as to test: NCI tumour cell line growth inhibition, 48 h
Experiment [1] relates to U251 CNS.
Experiment [2] has as its system SN12C renal.
Experiment [3] concerns RXF 393 renal.
The subject of experiment [4] is OVCAR-8 ovarian.
Experiment [5] relates to HCT-116 colon.
Experiment [6] concerns NCI-H460 lung.
The test system of experiment [7] is SK-OV-3 ovarian.
Experiment [8] has as its system UACC-257 melanoma.
Experiment [9] concerns UO-31 renal.
Experiment [10] has as its system CAKI-1 renal.

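Values below derive from 48-hour exposures of cells grown in 96-well plates, with endpoints linearly interpolated between the two concentrations bracketing the appropriate inhibition level. Here, GI50 denotes the concentration required for 50% inhibition of growth. The concentration for full growth arrest is given as TGI.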

Regarding `O=c1cc(NCC(O)CN2CCCC2)n(Cc2ccccc2)c(=O)n1Cc1ccccc1` (stereo not given), the GI50 was 43.6 µM in [1]; greater than 100 µM in experiment [2]; 46 µM in [3]; greater than 100 µM in experiment [4]; 13.6 µM in experiment [5]; 39.7 µM in [6]. Besides, the GI50 was greater than 100 µM in [7], 31.9 µM in experiment [8], 45.8 µM in experiment [9] and greater than 100 µM in experiment [10]. The TGI in [1] was greater than 100 µM; in [2], greater than 100 µM; in experiment [3], greater than 100 µM; in experiment [4] it was greater than 100 µM; in [5], 33.3 µM; in experiment [6], greater than 100 µM. The TGI in experiment [7] is greater than 100 µM; in [8], 85.6 µM; in experiment [9], greater than 100 µM; in [10], greater than 100 µM.

In the case of `N#Cc1cc(-c2cc3ccccc3o2)oc1N`, the GI50 in experiment [1] is 3.15 µM; in [2], 3 µM; in experiment [3], 3.96 µM; in experiment [4], 4.32 µM; in experiment [5], 3.65 µM; in experiment [6] it was 3.03 µM. Further, the GI50 in [7] is 2.38 µM; in experiment [8], 3.8 µM; in experiment [9], 3.72 µM; in [10] it was 1.65 µM. The TGI is 14.7 µM in [1]; 11.8 µM in experiment [2]; 13.5 µM in experiment [3]; greater than 100 µM in [4]; 12.2 µM in experiment [5]; 10.6 µM in [6]. Also, the TGI in [7] amounted to 7.15 µM; in experiment [8], 74.1 µM; in experiment [9] it was 18.2 µM; in [10], 5.48 µM.

Regarding `O=C(Nc1ccccc1-c1nc2ccccc2[nH]c1=O)c1ccccc1`, the TGI in experiment [1] is 49.6 µM; in experiment [2] it was 69.1 µM; in experiment [3], 43.6 µM; in experiment [4] it was 66.1 µM; in experiment [5] it was 40.7 µM; in experiment [6], 47.1 µM. Further, the TGI was 40.5 µM in experiment [7], greater than 100 µM in experiment [8], 38.3 µM in experiment [9] and 86.8 µM in experiment [10].

Turning to `NNC(=S)N/N=C(/C(=O)Nc1ccc(Cl)c(Cl)c1)C(C1OC(=O)c2ccccc21)[N+](=O)[O-]` (stereo not given), the TGI in experiment [1], in [2], in [3], in [4], in experiment [5] and in experiment [6] was greater than 100 µM throughout. Further, the TGI in [7], in [8], in experiment [9] and in experiment [10] was greater than 100 µM each time.

As for `Cc1cc2nc(C=C(C(F)(F)F)C(F)(F)F)oc2cc1C`, the TGI in [1] was greater than 10 µM; in experiment [2], 5.1 µM; in experiment [3] it was 4.92 µM; in experiment [4] it was 6.68 µM; in [5], 2.72 µM; in experiment [6], greater than 10 µM. Moreover, the TGI in [7] is greater than 10 µM; in experiment [8], greater than 10 µM; in [9] it was greater than 10 µM; in experiment [10] it was 7.23 µM.

With `COc1ccc(C(=O)c2cc(C)c(OC)c(C)c2)c(OC)c1O`, the GI50 in experiment [1] was 0.0485 µM; in [2], 0.0786 µM; in [3], 0.163 µM; in experiment [4] it was 0.0459 µM; in experiment [5], 0.103 µM; in experiment [6] it was 0.0713 µM. Further, the GI50 in experiment [7] is 0.228 µM; in [8], 32.9 µM; in [9], 0.0695 µM; in experiment [10], 0.185 µM. The TGI is greater than 100 µM in experiment [1]; greater than 100 µM in experiment [2]; greater than 100 µM in experiment [3]; greater than 100 µM in experiment [4]; greater than 100 µM in experiment [5]; 1.35 µM in experiment [6]. Also, the TGI in experiment [7] was greater than 100 µM; in experiment [8], greater than 100 µM; in experiment [9], greater than 54 µM; in [10], greater than 100 µM.

Regarding `CC(C)c1ccc(-c2cc(-c3cn[nH]c3-c3ccccn3)ccn2)cc1`, the GI50 in experiment [1] is 11.8 µM; in experiment [2] it was 15.9 µM; in experiment [3], greater than 18.5 µM; in experiment [4] it was 9.57 µM; in experiment [5] it was 10.3 µM; in experiment [6], 7.64 µM. For the same compound, the GI50 in experiment [7] is greater than 23.4 µM; in experiment [8], greater than 25 µM; in experiment [9], 6.6 µM; in experiment [10] it was 19.1 µM. Further, the TGI in experiment [1], in experiment [2], in experiment [3], in [4], in experiment [5] and in experiment [6] was greater than 25 µM throughout. Besides, the TGI in experiment [7], in experiment [8], in [9] and in experiment [10] was greater than 25 µM each time.

Consider `CC1=CC(C)(C)N=C2SC(c3ccc(N)cc3)=NN12`, for which the TGI in [1], in experiment [2], in experiment [3], in experiment [4], in [5] and in [6] was greater than 100 µM throughout. Also, the TGI in experiment [7], in experiment [8], in [9] and in [10] was greater than 100 µM in each case.

For the compound `O=C1/C(=C(/c2ccccc2)N2CCOCC2)Cc2ccccc21`, the GI50 in experiment [1] was 1.65 µM; in experiment [2] it was 2.16 µM; in experiment [3] it was 0.883 µM; in experiment [4], 3.9 µM; in experiment [5], 0.919 µM; in experiment [6], 4.52 µM. Besides, the GI50 in experiment [7] was 23.1 µM; in experiment [8], 2.21 µM; in [9] it was 0.455 µM; in experiment [10] it was 0.186 µM. Moreover, the TGI stood at 4.57 µM in [1]; 6.33 µM in [2]; 2.19 µM in [3]; 13.7 µM in experiment [4]; 2.44 µM in experiment [5]; 18.6 µM in experiment [6]. In addition, the TGI in experiment [7] amounted to 72.6 µM; in experiment [8] it was 6.46 µM; in experiment [9], 1.08 µM; in [10], 2.08 µM.

For `c1ccc(C2N3CCCCC3[C@@H]3c4[nH]c5ccccc5c4CCN23)nc1` (stereo not given in full), the TGI in experiment [1], in [2], in experiment [3], in experiment [4], in experiment [5] and in experiment [6] was greater than 100 µM in each case. Further, the TGI in [7], in [8], in experiment [9] and in experiment [10] was greater than 100 µM throughout.

As for `C=C1C(=O)O[C@H]2[C@H]1CC/C(COC(=O)NCCCCNC(=O)OC/C1=C/CC[C@@]3(C)O[C@H]3[C@H]3OC(=O)C(=C)[C@@H]3CC1)=C\CC[C@@]1(C)O[C@@H]21`, the GI50 is 2.94 µM in [1]; 2.75 µM in experiment [2]; 1.44 µM in [3]; 2.18 µM in [4]; 1.12 µM in [5]; 4.61 µM in experiment [6]. The GI50 was 12.7 µM in experiment [7], 1.68 µM in [8], 7.61 µM in experiment [9] and 10.8 µM in experiment [10]. Besides, the TGI in experiment [1] was 9.83 µM; in experiment [2] it was 10.1 µM; in [3], 3.36 µM; in [4], 8.26 µM; in experiment [5] it was 2.63 µM; in experiment [6], 18 µM. In addition, the TGI worked out at 25.3 µM in [7], 4.99 µM in experiment [8], 20.9 µM in experiment [9] and 23 µM in [10].

`NS(=O)(=O)c1ccc(-c2ccc3c(NC(=O)C4CC4)n[nH]c3c2)cc1`: the GI50 in experiment [1], in [2], in [3], in experiment [4], in experiment [5] and in [6] was greater than 25 µM each time. In addition, the GI50 in [7], in experiment [8], in [9] and in experiment [10] was greater than 25 µM in each case. The TGI in experiment [1], in experiment [2], in experiment [3], in experiment [4], in [5] and in experiment [6] was greater than 25 µM in each case. For the same compound, the TGI in [7], in experiment [8], in experiment [9] and in experiment [10] was greater than 25 µM in each case.

In the case of `COc1ccc(-c2[nH]c3ccc(OC)cc3c2/C=C(\C#N)S(=O)(=O)c2ccccc2)cc1`, the GI50 in [1] was 0.557 µM; in [2], 2.2 µM; in experiment [3] it was greater than 100 µM; in experiment [4], 2.97 µM; in experiment [5] it was 0.53 µM; in experiment [6] it was 0.659 µM. Moreover, the GI50 in experiment [7] is 0.963 µM; in experiment [8], 7.06 µM; in [9], 2.69 µM; in [10] it was 4.22 µM. The TGI was greater than 100 µM in [1]; greater than 100 µM in experiment [2]; greater than 100 µM in experiment [3]; greater than 35.2 µM in experiment [4]; greater than 100 µM in experiment [5]; greater than 26 µM in [6]. The TGI in experiment [7] is greater than 65.9 µM; in [8] it was greater than 46.5 µM; in experiment [9] it was greater than 27.6 µM; in experiment [10] it was greater than 100 µM.

Take `CCCCC(CC)COC(=O)C[N+](C)(C)CCOC(c1ccccc1)c1ccccc1` (stereo not given): the GI50 is 1.87 µM in [1]; 2.43 µM in experiment [2]; 1.48 µM in experiment [3]; 4.02 µM in experiment [4]; 1.8 µM in experiment [5]; 4.77 µM in experiment [6]. In addition, the GI50 was 6.38 µM in experiment [7], 2.56 µM in experiment [8], 12.4 µM in experiment [9] and 16.8 µM in [10]. For the same compound, the TGI came to 3.81 µM in [1]; 6 µM in experiment [2]; 3.34 µM in [3]; 17.5 µM in experiment [4]; 3.32 µM in experiment [5]; 18.8 µM in [6]. In addition, the TGI in experiment [7] worked out at 21.8 µM; in experiment [8], 7.6 µM; in experiment [9] it was 27.3 µM; in experiment [10], 31.9 µM.

Turning to `CNC(=S)/N=C(\N)N(C)C`, the TGI in experiment [1], in experiment [2], in experiment [3], in experiment [4], in experiment [5] and in experiment [6] was greater than 100 µM each time. For the same compound, the TGI is greater than 100 µM in experiment [7], greater than 10 µM in [8], greater than 100 µM in experiment [9] and greater than 100 µM in experiment [10].

Take `COc1ccc(C2=C(Cl)c3cc(OC)c(OC)cc3C2Cl)cc1` (stereo not given): the TGI was 26.6 µM in experiment [1]; 30.5 µM in experiment [2]; 30.4 µM in experiment [3]; 50.6 µM in experiment [4]; 31.3 µM in experiment [5]; 27.4 µM in [6]. For the same compound, the TGI in experiment [7] was found to be 34.3 µM; in [8] it was 39.6 µM; in [9], 13.4 µM; in experiment [10] it was 34.6 µM.

Turning to `CN(C)CCC1(C2=CCCC2)CC/C(=C\c2ccc(Cl)cc2)C1=O` (stereo not given), the TGI in experiment [1] worked out at 21.8 µM; in [2] it was 24.3 µM; in experiment [3] it was 10.9 µM; in [4], 25.3 µM; in experiment [5], 22.3 µM; in experiment [6], 26.9 µM. Besides, the TGI in experiment [7] is 19.6 µM; in experiment [8], 8.62 µM; in [9], 18.8 µM; in experiment [10], 19.2 µM.

With `CCOC(=O)/C(C)=C(/O)C(=O)OCC`, the TGI in experiment [1], in experiment [2], in [3], in experiment [4], in experiment [5] and in [6] was greater than 100 µM each time. Moreover, the TGI in experiment [7], in experiment [8], in [9] and in experiment [10] was greater than 100 µM throughout.

For the origin of these results see PubChem BioAssay (NCI).
